Results published in patent US20060063759A1, “Tricyclic steroid hormone nuclear receptor modulators” (priority 2002, published 2006).

Molecular target: T1, human MR (Homo sapiens, UniProt P08235)
T1 construct: The full length human MR gene is cloned from a human kidney or human brain cDNA library; His tag from the pAcHLT vector (own knowledge); made in house; host or cells: Sf9 insect cells (baculovirus, pAcHLT transfer vector)
T1 sequence (P08235 1-984): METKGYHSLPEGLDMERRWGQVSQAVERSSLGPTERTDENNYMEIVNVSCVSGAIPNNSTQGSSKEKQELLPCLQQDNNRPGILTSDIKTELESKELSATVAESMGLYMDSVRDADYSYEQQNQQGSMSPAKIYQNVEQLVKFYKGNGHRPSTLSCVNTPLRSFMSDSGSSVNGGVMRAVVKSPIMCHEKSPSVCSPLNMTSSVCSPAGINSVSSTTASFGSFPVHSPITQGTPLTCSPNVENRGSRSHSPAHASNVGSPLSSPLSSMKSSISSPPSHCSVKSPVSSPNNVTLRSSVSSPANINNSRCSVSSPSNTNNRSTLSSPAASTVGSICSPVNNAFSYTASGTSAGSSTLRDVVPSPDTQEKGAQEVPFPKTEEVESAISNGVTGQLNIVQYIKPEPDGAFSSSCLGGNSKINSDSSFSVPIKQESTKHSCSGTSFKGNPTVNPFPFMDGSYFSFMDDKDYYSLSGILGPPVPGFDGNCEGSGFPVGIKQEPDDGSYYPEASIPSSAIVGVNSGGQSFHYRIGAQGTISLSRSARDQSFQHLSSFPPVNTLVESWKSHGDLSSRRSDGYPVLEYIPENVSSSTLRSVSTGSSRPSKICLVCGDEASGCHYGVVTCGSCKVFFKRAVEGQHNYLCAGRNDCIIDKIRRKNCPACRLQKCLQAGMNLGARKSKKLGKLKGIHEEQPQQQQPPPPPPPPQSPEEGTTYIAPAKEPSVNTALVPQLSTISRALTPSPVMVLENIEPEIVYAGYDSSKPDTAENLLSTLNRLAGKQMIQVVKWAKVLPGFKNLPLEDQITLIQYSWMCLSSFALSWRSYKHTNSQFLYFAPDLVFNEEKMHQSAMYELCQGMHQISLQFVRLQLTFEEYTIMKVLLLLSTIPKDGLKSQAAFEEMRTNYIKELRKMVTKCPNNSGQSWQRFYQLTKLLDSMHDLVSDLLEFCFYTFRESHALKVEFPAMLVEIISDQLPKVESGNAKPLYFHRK
Test: Mineralocorticoid Receptor Binding Assay ([3H]-aldosterone)
Details: [3H]-aldosterone binding, human MR expressed in Sf9 cells; read-out: MR Ki
Description: All ligands, radioligands, solvents, and reagents employed in the binding assays are readily available from commercial sources, or can be readily synthesized by the ordinarily skilled artisan.
The full length human MR gene is cloned from a human kidney or human brain cDNA library. […] The PCR reaction is performed in a final volume of 50 μl containing about 1 μl of a 50× stock solution of polymerase; about 1 μl of a 50× stock solution of dNTP; about 5 μl of an appropriate PCR buffer; about 1 μl of each primer; about […] of a H. kidney or H. brain cDNA library; and about 36 μl of water. The reaction is allowed to denature for about 30 seconds at 95 degrees Celsius, anneal for about 30 seconds at 55 degrees Celsius, and extend for about 5 minutes at 72 degrees Celsius, the sequence being repeated for a total of about 35 cycles. […] To extract the cDNA product from the agarose gel, the QIAEX II Gel Extraction protocol (QIAGEN, Inc.) is employed according to the manufacturer's instructions. Following extraction, the MR cDNA is cloned into an appropriate cloning vector (Zero Blunt TOPO PCR Cloning Kit Invitrogen, Inc.) and a pAcHLT-baculovinis transfer vector (B.D./Pharminogen), then expressed in SF9 insect cells, essentially according to manufacturer's instructions. Sf9 cells are grown at a scale where gram quantity cell pellets are obtained for subsequent use in the MR binding assay. Harvested cell pellets are lysed by repeated freeze-thaw cycles (about 4) in a suitable lysis buffer then centrifuged at about 1×10^3 G (with the supernatant being saved for future assays).
MR binding assays are performed in a final total volume of about 250 μl containing about 20-25 μg of protein and 0.5 nM of [^3H]-aldosterone plus varying concentrations of test compound or vehicle. The assay binding buffer consists of 30 mM sodium molybdate, 30 mM of TRIS-HCl, 5 mM sodium phosphate, 5 mM sodium pyrophosphate, and about 10% glycerol, pH=7.5.
Incubations are carried out at 4 degrees Celsius with shaking for about 16 hours. 200 μl aliquots of each incubation are filtered onto Millipore HA 0.45 micron 96-well filter plates, pre-moistened with cold 30 mM TRIS-HCl. The filter plates are suctioned dry with vacuum and immediately washed 3× with cold 30 mM TRIS-HCl. The plates are then punched out and the amount of receptor-ligand complex is determined by liquid scintillation counting using 4 ml of Ready Protein Plus™ liquid scintillation cocktail.
IC50 values (defined as the concentration of test compound required to decrease [^3H]-aldosterone binding by 50%/o) are then determined.

Ki	SMILES
< 500 nM	CS(=O)(=O)Nc1cccc(C=C2c3ccccc3CSc3c(Cl)cc(Cl)cc32)c1 [Example 697]
< 1000 nM	CS(=O)(=O)Nc1cccc(/C=C2/c3ccccc3CCc3ccncc32)c1 [Example 513]
< 500 nM	O=c1[nH]c2cc(/C=C3\c4ccc(F)cc4OCc4ncsc43)ccc2n1CCN1CCOCC1 [Example 719]
< 500 nM	Cn1c(=O)n(C)c2cc(/C=C3\c4ccccc4COc4cc(F)ccc43)ccc21 [Example 717]
< 500 nM	Cc1ccc2c(c1)/C(=C/c1cccc(NS(C)(=O)=O)c1)c1ccccc1CO2 [Example 678]
< 500 nM	CS(=O)(=O)Nc1cccc(/C=C2/c3ccccc3CCc3cc(F)ccc32)c1 [Example 354]
< 500 nM	CS(=O)(=O)Nc1cccc(/C=C2\c3ccc(F)cc3CCc3ncccc32)c1 [Example 486, (E)-N-[3-(8-fluoro-10,11-dihydro-benzo[4,5]cyclohepta[1,2-b]pyridin-5-ylidenemethyl)-phenyl]-methanesulfonamide]
< 500 nM	C/C(=C1/c2ccccc2COc2cc(Cl)ccc21)c1cccc(NS(C)(=O)=O)c1 [Example 792]
< 500 nM	O=c1[nH]c2ccc(CC3c4ccccc4COc4cc(F)ccc43)cc2[nH]1 (stereo not drawn) [Example 645]
< 500 nM	O=c1[nH]c2cc(/C=C3/c4ccc(F)cc4OCc4ncccc43)ccc2n1CCN1CCOCC1 [Example 618, (E)-5-(8-Fluoro-11H-10-oxa-1-aza-dibenzo[a,d]cyclohepten-5-ylidenemethyl)-1-(2-morpholin-4-yl-ethyl)-1,3-dihydro-benzoimidazol-2-one]
< 500 nM	O=c1[nH]c2ccc(/C=C3/c4ccc(F)cc4OCc4ncccc43)cc2[nH]1 [Example 625]
< 500 nM	C/C(=C1\c2ccccc2COc2cc(Cl)ccc21)c1cccc(NS(C)(=O)=O)c1 [Example 791]
< 500 nM	CSc1cccc(C=C2c3ccccc3CCc3ccccc32)c1 [Example 278, 5-(3-Methylsulfanyl-benzylidene)-10,11-dihydro-5H-dibenzo[a,d]cycloheptene]
< 500 nM	CCOc1ccc2c(c1)OCc1ccccc1/C2=C(\C)c1cccc(NS(C)(=O)=O)c1 [Example 815]

The next lines start with the molecule.

SMILES	Ki
COc1ccc2c(c1)CCc1cc(Cl)ccc1/C2=C\c1cccc(NS(C)(=O)=O)c1 [Example 425]	< 500 nM
Cc1cccc2c1/C(=C/c1cccc(NS(C)(=O)=O)c1)c1ccccc1CC2 [Example 313]	< 500 nM
C/C(=C1\c2ccccc2CCc2cc(C)ccc21)c1cccc(NS(C)(=O)=O)c1 [Example 781]	< 500 nM
CC(=O)Nc1nc2c(s1)/C(=C\c1cccc(NS(C)(=O)=O)c1)c1ccccc1CC2 [Example 558]	< 500 nM
CS(=O)(=O)Nc1cccc(C=C2c3ccccc3CCc3ccsc32)c1 [Example 493]	< 500 nM
C/C(=C1/c2ccccc2CCc2cc(OCC3CC3)ccc21)c1cccc(NS(C)(=O)=O)c1 [Example 826]	< 500 nM
CCCCOc1ccc2c(c1)OCc1ccccc1/C2=C(/C)c1cccc(NS(C)(=O)=O)c1 [Example 816]	< 500 nM
C/C(=C1/c2ccccc2CCc2cc(C)ccc21)c1cccc(NS(C)(=O)=O)c1 [Example 782]	< 500 nM
COCC(=C1c2ccccc2CCc2cc(Cl)ccc21)c1cccc(NS(C)(=O)=O)c1 [Example 756, N-{3-[1-(2-Chloro-10,11-dihydro-dibenzo[a,d]cyclohepten-5-ylidene)-2-methoxy-ethyl]-phenyl}-methanesulfonamide]	< 500 nM
C/C(=C1\c2ccccc2CCc2cc(OCC3CC3)ccc21)c1cccc(NS(C)(=O)=O)c1 [Example 825]	< 500 nM
CS(=O)(=O)Nc1cccc(C=C2c3ccccc3CSc3c(Cl)cccc32)c1 [Example 720]	< 500 nM
CC(C)S(=O)(=O)Nc1ccc(C=C2c3ccccc3CCc3ccccc32)cc1 [Example 107, Propane-2-sulfonic acid [4-(10,11-dihydro-dibenzo[a,d]cyclohepten-5-ylidenemethyl)-phenyl]-amide]	< 500 nM
COc1ccc2c(c1)CCc1cc(Cl)ccc1/C2=C/c1cccc(NS(C)(=O)=O)c1 [Example 426]	< 500 nM
